Test results taken from patent publication US20250313535A1, “ALPHA 4 BETA 7 INTEGRIN MODULATORS AND USES THEREOF” (DICE MOLECULES SV, INC., priority 2022, published 2025).
pIC50: −log10 of the molar value. Read-outs that look alike come from different tables or passages of the source.

Assays:
α4β7 integrin = α4β7 integrin (Homo sapiens (Human), UniProt P13612+P26010); assay: Integrin Adhesion Assay: Protocol 4 (MAdCAM-coated plate, RPMI-8866 cells with stable LOF mutation of the ITGB1 gene); type: cell-based
Chain of α4β7 integrin (P13612 34-1032): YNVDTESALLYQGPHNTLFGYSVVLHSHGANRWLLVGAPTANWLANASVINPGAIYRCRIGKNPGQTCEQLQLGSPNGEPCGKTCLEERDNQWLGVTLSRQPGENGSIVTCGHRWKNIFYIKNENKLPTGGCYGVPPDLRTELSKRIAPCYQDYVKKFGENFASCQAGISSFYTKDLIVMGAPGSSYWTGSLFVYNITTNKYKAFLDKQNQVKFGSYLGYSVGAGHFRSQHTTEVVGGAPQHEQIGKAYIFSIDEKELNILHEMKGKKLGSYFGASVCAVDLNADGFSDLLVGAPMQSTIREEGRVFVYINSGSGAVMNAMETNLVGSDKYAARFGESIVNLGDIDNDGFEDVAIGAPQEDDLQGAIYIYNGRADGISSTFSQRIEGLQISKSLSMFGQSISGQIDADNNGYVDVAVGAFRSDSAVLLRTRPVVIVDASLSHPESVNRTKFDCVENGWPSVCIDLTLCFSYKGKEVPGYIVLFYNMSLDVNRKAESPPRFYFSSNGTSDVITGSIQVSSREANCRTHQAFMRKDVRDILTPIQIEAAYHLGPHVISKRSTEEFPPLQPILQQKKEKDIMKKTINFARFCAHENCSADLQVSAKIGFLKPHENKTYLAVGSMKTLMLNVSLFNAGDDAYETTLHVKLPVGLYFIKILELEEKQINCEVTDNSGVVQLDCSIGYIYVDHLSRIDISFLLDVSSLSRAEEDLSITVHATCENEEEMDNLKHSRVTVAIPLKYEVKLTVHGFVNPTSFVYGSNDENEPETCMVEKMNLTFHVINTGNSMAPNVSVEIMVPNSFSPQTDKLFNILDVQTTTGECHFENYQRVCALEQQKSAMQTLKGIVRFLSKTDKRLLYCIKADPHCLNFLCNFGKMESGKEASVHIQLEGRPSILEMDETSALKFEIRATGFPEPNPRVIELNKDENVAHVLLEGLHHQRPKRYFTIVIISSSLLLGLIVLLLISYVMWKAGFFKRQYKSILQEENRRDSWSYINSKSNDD
Chain of α4β7 integrin (P26010 20-798): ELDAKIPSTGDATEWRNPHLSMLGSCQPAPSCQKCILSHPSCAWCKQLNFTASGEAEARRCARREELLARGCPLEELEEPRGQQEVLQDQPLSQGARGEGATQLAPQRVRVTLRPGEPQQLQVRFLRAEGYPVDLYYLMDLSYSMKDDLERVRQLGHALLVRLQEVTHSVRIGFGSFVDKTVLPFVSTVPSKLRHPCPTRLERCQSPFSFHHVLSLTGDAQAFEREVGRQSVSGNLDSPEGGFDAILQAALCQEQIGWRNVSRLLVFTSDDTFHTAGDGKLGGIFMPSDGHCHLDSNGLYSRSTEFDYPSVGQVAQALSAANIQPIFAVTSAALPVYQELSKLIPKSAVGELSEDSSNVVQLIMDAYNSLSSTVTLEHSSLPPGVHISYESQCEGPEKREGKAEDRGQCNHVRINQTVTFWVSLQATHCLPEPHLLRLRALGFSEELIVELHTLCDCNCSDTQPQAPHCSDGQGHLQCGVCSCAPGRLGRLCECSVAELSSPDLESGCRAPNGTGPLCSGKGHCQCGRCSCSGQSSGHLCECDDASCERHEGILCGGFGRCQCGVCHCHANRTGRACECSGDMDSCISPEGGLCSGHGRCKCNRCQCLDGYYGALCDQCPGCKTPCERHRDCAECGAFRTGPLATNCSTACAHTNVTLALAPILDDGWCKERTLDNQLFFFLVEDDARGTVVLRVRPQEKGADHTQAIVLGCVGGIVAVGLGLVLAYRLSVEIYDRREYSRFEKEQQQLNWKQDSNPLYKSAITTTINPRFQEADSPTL
Procedure: (§1) Integrin Adhesion Assay Using Genetically Modified Cells Generating Stable Cell Lines with ITGB1 or ITGB7 Knockout (Protocol 4 and Protocol 5)
(§2) To obtain subclones of the RPMI-8866 cell line (Sigma-Aldrich, St. Louis, MO) that were individually deficient in either integrin β1 or integrin β 7, CRISPR/Cas9 technology was employed (PMID: 30108345). Specifically, a Neon™ Transfection System System 10 μL Kit and the Neon™ Transfection device (both from ThermoFisher Scientific) were used.
(§3) The protocol was performed following the manufacturer instructions, described in https://www.thermofisher.com/document-connect/document-connect.html?url=https % 3A%2F%2F assets.thermofisher.com%2FTFS-Assets%2FLSG%2Fmanuals%2FMAN0017066_TrueCut Cas9_Protein_v2_UG.pdf, which is incorporated by reference herein in its entirety.
(§4) RPMI-8866 cells were transferred to a flask the day before transfection, at a confluence of 5×10^5 cells/mL. The cells were washed with PBS and resuspended in buffer R (Neon™ Transfection System, Invitrogen) to 2×10^5 cells/10 uL for each reaction. The TrueCut™ HiFi Cas9 Protein (1250 ng per reaction) was mixed with TrueGuide™ sgRNA (7.5 pmoles each/pool of 3 sequences, table 1) (ThermoFisher Scientific). This mix was combined with the RPMI-8866 cells and electroporated on the Neon system at 1700V/20 ms/1 pulse. Transfected cells were allowed to recover in 500 μL pre-warmed cRMPI media (RPMI-1640 media with 10% FBS, 100 U/ml Penicillin-Streptomycin) at 37° C., 5% CO2 for 24 hours. At that time, an extra 500 μL of pre-warmed cRMPI media was added, and cells were incubated for another 24 hours.
(§5) For flow cytometry analysis, 100 μL of the transfected cells were collected and stained with anti-itga4 (Clone: 9F10, PE, BD Pharmingen™), anti-itgb 1 (Clone: (TS2/16), Super Bright 436, eBioscience), anti-itgb7 (Clone: FIB504, Brilliant Violet 650, BD Pharmingen™) and viability dye (LIVE/DEAD™ Fixable Green Dead Cell Stain, Invitrogen™). An Attune NxT Flow Cytometer was used to analyze the CRISPR-transfected cells. The flow cytometry results were analyzed using FlowJo™ v10.8.1 Software (BD Life Sciences). Fluorescence minus one (FMO) controls were used to select appropriate gates for data analysis.
(§6) To generate an individual clones of cells deficient in either ITGB7 or ITGB1 by limiting dilution assay, the transfected cells were resuspended at 5 cells/mL and seeded in 384 well plates. Outgrowth of clones was monitored using a microscope, and 24 clones were transferred for expansion. Expression of either integrin was verified by flow cytometry in each of the clones. One clone of each integrin b7 or the integrin b1 knockout was chosen, expanded and aliquots were frozen in vapor phase liquid nitrogen.
Integrin Adhesion Assay: Protocol 4
(§7) MAdCAM (R&D Systems, 0.1 ug) was diluted in 50 μL PBS, added to each well of an opaque ELISA plate (Thermo), and incubated overnight at 4° C. Coated plates were washed once with PBS and then blocked with 200 μL of assay buffer (10 mM HEPES, 150 mM NaCl, 1 mM MnCl2, 0.1 mM CaCl2), 1% BSA) for 1 hour at 37° C. and 5% CO2. After incubation, buffer was aspirated from the plates and 50 μL of fresh assay buffer was added. Compounds were added using a compounds dispenser (Tecan), and DMSO concentration was normalized to 1% across each plate. 50 μL of RPMI-8866 cells with a stable loss of function (LOF) mutation of the ITGB1 gene (2×10^6 per mL) were added to each well and the plates were incubated for 1 hour at 37° C. at a CO2 concentration of 5%. After incubation, plates were allowed to cool to RT for 10 minutes before being washed four times in assay buffer by an automated plate washer (BioTek). After washing, 100 μL of a 1:1 mixture of assay buffer and CellTiter GLO 2.0 reagent (Promega) were added to each well. Plates were mixed for 2 minutes at 1000 rpm and then allowed to incubate an additional 10 minutes before reading out luminescence on a Tecan Spark plate reader. […]

α4β1 integrin = α4β1 integrin (Homo sapiens (Human), UniProt P05556+P13612); assay: Integrin Adhesion Assay: Protocol 5 (VCAM-coated plate, RPMI-8866 cells with stable LOF mutation of the ITGB7 gene); type: cell-based; settings: RPMI-8866 cells with stable LOF mutation of the ITGB7 gene; read-out: Mean IC50 α4β1 KO^b
Chain of α4β1 integrin (P13612 34-1032): as the sequence (P13612 34-1032) above
Chain of α4β1 integrin (P05556 21-798): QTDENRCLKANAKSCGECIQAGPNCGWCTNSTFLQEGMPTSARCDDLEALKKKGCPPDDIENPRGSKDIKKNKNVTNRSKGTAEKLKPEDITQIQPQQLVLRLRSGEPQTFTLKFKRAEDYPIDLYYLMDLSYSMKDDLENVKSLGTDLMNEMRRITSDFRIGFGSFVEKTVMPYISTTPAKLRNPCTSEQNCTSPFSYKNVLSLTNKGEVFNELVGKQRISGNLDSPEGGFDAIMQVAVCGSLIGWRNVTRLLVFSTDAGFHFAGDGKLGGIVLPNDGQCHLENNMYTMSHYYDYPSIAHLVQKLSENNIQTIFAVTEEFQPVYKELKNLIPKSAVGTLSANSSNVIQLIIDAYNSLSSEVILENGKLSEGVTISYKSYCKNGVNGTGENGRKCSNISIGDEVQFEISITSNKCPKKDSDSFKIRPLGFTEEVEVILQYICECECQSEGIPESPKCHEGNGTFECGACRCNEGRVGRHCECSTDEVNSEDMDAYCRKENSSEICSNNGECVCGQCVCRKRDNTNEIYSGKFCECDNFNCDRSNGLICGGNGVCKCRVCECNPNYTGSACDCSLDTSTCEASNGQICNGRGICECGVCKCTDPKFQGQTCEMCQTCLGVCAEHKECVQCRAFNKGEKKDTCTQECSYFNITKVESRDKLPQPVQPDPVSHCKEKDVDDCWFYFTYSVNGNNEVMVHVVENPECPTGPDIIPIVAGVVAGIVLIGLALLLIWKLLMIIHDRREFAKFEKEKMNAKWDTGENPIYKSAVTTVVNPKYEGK
Procedure: as §1, §2, §3, §4, §5, §6
Integrin Adhesion Assay: Protocol 5
as §7, with “VCAM” for “MAdCAM”, “by” for “using a”, “(Tecan)” for “(Tecan),”, “LOF” for “loss of function (LOF)”, “ITGB7” for “ITGB1”, “and 5% CO2.” for “at a CO2 concentration of 5%.”

[1] = RPMI-8866 cells with stable LOF mutation of the ITGB1 gene, read-out: Mean IC50 α4β7 KO^a
[2] = Protocol 4, RPMI-8866 cells with LOF mutation of ITGB1, MAdCAM, read-out: Mean IC50 α4β7 KO

pIC50 (α4β7 integrin; [1])	pIC50 (α4β1 integrin)	pIC50 (α4β7 integrin; [2])	Compound
> 8.00	6.00 to 7.00	–	Cn1c(=O)c(-c2cccc3c(C[C@H](NC(=O)C4(C(F)(F)F)CCN(CC(F)F)CC4)C(=O)O)cccc23)c(C(F)(F)F)c2ccccc21 (racemic) [Compound 480]
7.00 to 8.00	< 6.00	–	Cn1c(=O)c(-c2cccc3c(C[C@H](NC(=O)C4(C(F)(F)F)CCN([C@H]5CCC(F)(F)C5)CC4)C(=O)O)cccc23)c(C(F)(F)F)c2ccccc21 (single isomer, unassigned) [Compound 495]
> 8.00	6.00 to 7.00	–	COc1ccc(CN2CCC(F)(F)CC2)c(OC)c1-c1cccc2c(C[C@H](NC(=O)C3(C(F)(F)F)CCN(C4COCC4(F)F)CC3)C(=O)O)cccc12 (single isomer, unassigned) [Compound 639]
7.00 to 8.00	< 6.00	–	COc1ccc(CN2CCC(F)(F)CC2)c(OC)c1-c1cccc2c(C[C@H](NC(=O)C3(C(F)(F)F)CCN(C4COCC4(F)F)CC3)C(=O)O)cccc12 (single isomer, unassigned) [Compound 640]
> 8.00	< 6.00	–	CN(C)Cc1cccc2c(-c3cccc4c(C[C@H](NC(=O)C5(C(F)(F)F)CCN(CC(F)(F)F)CC5)C(=O)O)cccc34)nccc12 [Compound 421]
> 8.00	6.00 to 7.00	–	CCOCc1cc(OC)c(-c2cccc3c(C[C@H](NC(=O)C4(C(F)(F)F)CCN(CC(F)(F)F)CC4)C(=O)O)cccc23)c(OC)c1 [Compound 430]
> 8.00	7.00 to 8.00	–	Cn1c(=O)c(-c2cccc3c(C[C@H](NC(=O)C4(C(F)(F)F)CCN(C5COC5)CC4)C(=O)O)cccc23)c(C(F)(F)F)c2ccccc21 [Compound 432]
> 8.00	6.00 to 7.00	–	Cc1cccc(F)c1C(=O)N[C@@H](Cc1cccc2c(-c3c(C(F)(F)F)c4cc(CN(C)C)ccc4n(C)c3=O)cccc12)C(=O)O [Compound 451]
> 8.00	6.00 to 7.00	–	Cc1cc(C(F)(F)F)c(-c2cccc3c(C[C@H](NC(=O)C4(C(F)(F)F)CCN(CC(F)(F)F)CC4)C(=O)O)cccc23)c(=O)n1C [Compound 453]
> 8.00	6.00 to 7.00	–	COc1ccc(CN(C)C)c(OC)c1-c1cccc2c(C[C@H](NC(=O)C3(C(F)(F)F)CCN(CC(F)(F)F)CC3)C(=O)O)cccc12 [Compound 455]
–	–	> 8.00	O=C(O)[C@H](Cc1cccc2c(-c3nccc4ccc(CCCN5CCC6(CC5)CC6)cc34)cccc12)NC(=O)C1(C(F)(F)F)CCN(CC(F)(F)F)CC1 [Compound 743]
–	–	> 8.00	O=C(O)[C@H](Cc1cccc2c(-c3nccc4ccc(CCCN5CC6(CCC6)C5)cc34)cccc12)NC(=O)C1(C(F)(F)F)CCN(CC(F)(F)F)CC1 [Compound 745]
–	–	7.00 to 8.00	Cc1c(CN2CCCCC2)ccnc1-c1cccc2c(C[C@H](NC(=O)C3(C(F)(F)F)CCN(CC(F)(F)F)CC3)C(=O)O)cccc12 [Compound 747]
–	–	> 8.00	CN1CCc2nc(-c3cccc4c(C[C@H](NC(=O)C5(C(F)(F)F)CCN(CC(F)(F)F)CC5)C(=O)O)cccc34)ccc2C1 [Compound 755]
–	–	> 8.00	Cc1cc(C2CCCN(C)C2)cnc1-c1cccc2c(C[C@H](NC(=O)C3(C(F)(F)F)CCN(CC(F)(F)F)CC3)C(=O)O)cccc12 (some centres unmarked) [Compound 760]
–	–	> 8.00	O=C(O)[C@H](Cc1cccc2c(-c3nccc4ccc(CCCN5CCC6(CC5)CC6)cc34)cccc12)NC(=O)C1(C(F)(F)F)CCN(CC(F)F)CC1 [Compound 774]

pIC50 (α4β7 integrin; [1])	pIC50 (α4β1 integrin)	pIC50 (α4β7 integrin; [2])	Compound
–	–	> 8.00	O=C(O)[C@H](Cc1cccc2c(-c3ncc(CN4CC(F)C4)c4ccccc34)cccc12)NC(=O)C1(C(F)(F)F)CCN(CC(F)F)CC1 [Compound 877]
–	–	> 8.00	COc1cc(CN2CCC(C(F)(F)F)CC2)cnc1-c1cccc2c(C[C@H](NC(=O)C3(C(F)(F)F)CCN(CC(F)(F)F)CC3)C(=O)O)cccc12 [Compound 889]
–	–	> 8.00	O=C(O)[C@H](Cc1cccc2c(-c3ncc(CN4CCCCC4)cc3C(F)(F)F)cccc12)NC(=O)C1(C(F)(F)F)CCN(CC(F)F)CC1 [Compound 897]
–	–	> 8.00	Cc1cc(CN2CCN(C3CC3)CC2)cnc1-c1cccc2c(C[C@H](NC(=O)C3(C(F)(F)F)CCN(CC(F)F)CC3)C(=O)O)cccc12 [Compound 899]
–	–	> 8.00	O=C(O)[C@H](Cc1cccc2c(-c3ncc(CN4CCC(F)(F)CC4)c4ccccc34)cccc12)NC(=O)C1(C(F)(F)F)CCN(CC(F)F)CC1 [Compound 906]
–	–	> 8.00	COC1CN(Cc2cnc(-c3cccc4c(C[C@H](NC(=O)C5(C(F)(F)F)CCN(CC(F)F)CC5)C(=O)O)cccc34)c3ccccc23)C1 [Compound 913]
–	–	> 8.00	COc1ccc(CN2CCCCC2)cc1-c1cccc2c(C[C@H](NC(=O)C3(C(F)(F)F)CCN(CC(F)F)CC3)C(=O)O)cccc12 [Compound 937]
–	–	> 8.00	COc1ccc(CN2CCC(C(F)(F)F)CC2)cc1-c1cccc2c(C[C@H](NC(=O)C3(C(F)(F)F)CCN(CC(F)F)CC3)C(=O)O)cccc12 [Compound 938]
–	–	> 8.00	COc1ccc(CN2CCC(C)(C)CC2)cc1-c1cccc2c(C[C@H](NC(=O)C3(C(F)(F)F)CCN(CC(F)(F)F)CC3)C(=O)O)cccc12 [Compound 941]
–	–	> 8.00	C[C@@H]1CN(CCc2cnc(-c3cccc4c(C[C@H](NC(=O)C5(C(F)(F)F)CCN(CC(F)(F)F)CC5)C(=O)O)cccc34)c3ccccc23)C[C@H](C)O1 [Compound 979]
–	–	> 8.00	COc1c(CN(C)C)ccc(C)c1-c1cccc2c(C[C@H](NC(=O)c3c(C)cccc3F)C(=O)O)cccc12 [Compound 1010]
–	–	7.00 to 8.00	COc1c(CN2CCCCC2)ccc(C(F)(F)F)c1-c1cccc2c(C[C@H](NC(=O)c3c(C)cccc3F)C(=O)O)cccc12 [Compound 1022]
–	–	6.00 to 7.00	Cn1c(=O)c(-c2cccc3c(C[C@H](NC(=O)C4(C)C[C@H]5CN(CC(F)(F)F)C[C@H]5C4)C(=O)O)cccc23)c(C(F)(F)F)c2ccccc21 (some centres unmarked) [Compound 1047]
–	–	6.00 to 7.00	Cn1c(=O)c(-c2cccc3c(C[C@H](NC(=O)C4(C)C5CC4CN(CC(F)(F)F)C5)C(=O)O)cccc23)c(C(F)(F)F)c2ccccc21 (some centres unmarked) [Compound 1048]
–	–	6.00 to 7.00	O=C(O)[C@H](Cc1cccc2c(-n3cccc(C(F)(F)F)c3=O)cccc12)NC(=O)C1(C(F)(F)F)CCN(CC(F)(F)F)CC1 [Compound 1055]
